Assay results reported in patent publication US7652149B2, “Crystalline pyrazoles” (Pharmacia & Upjohn Company LLC, priority 2004, dated 2010).

Assay: Suspension crystallization: relative thermodynamic stability of Forms I and II, Tt bracketed
Type: physicochemical
Details: for temperature at which the form is the equilibrium solid phase (thermodynamically more stable): mixture of Forms I and II suspended in toluene, at least three days, PXRD
Excerpt: In this Example, the transition temperature between Forms I and II is described. Form I and Form II are enantiotropic, which means that one polymorph is stable at temperatures below a transition temperature, Tt, but the other polymorph is stable at temperatures above Tt. The two solid phases have equal free energies at the transition temperature. Knowledge of the thermodynamic stability relationship is necessary for the selection of suitable crystallization conditions to produce Form I, and for formulation development and commercial manufacturing. It is important to determine Tt for the preparation and processing of bulk drug.
Materials. The Form I sample used in this study was 100% pure when tested by HPLC. Form II was prepared by heating Form I to 155° C. for 3 days in a dry oven and cooled to room temperature. This Form II sample was free of chemical degradation when tested by HPLC.
Methods. Suspension crystallization. The relative stability relationship between Forms I and II at a specific temperature was bracketed by suspending a mixture of the two polymorphs in toluene in a closed glass vial that was equilibrated at the temperature of interest. Excess solid of one polymorph was first added to saturate toluene in a glass vial at the chosen temperature. The other polymorph was added at least half an hour later. The suspension was stirred continuously for at least three days. A portion of the suspension was withdrawn and immediately filtered. The filtered solid was analyzed using PXRD to identify the equilibrium solid at that temperature. […] By repeating the experiment at different temperatures, the Tt was bracketed.

| SMILES | relative stability of the crystal form (ambient temperature and pressure) | temperature at which the form is the equilibrium solid phase (thermodynamically more stable) [°C] |
| --- | --- | --- |
| NS(=O)(=O)c1ccc(-n2nc(C(F)(F)F)cc2-c2ccc(F)cc2)cc1 [Form II, 4-[5-(4-fluorophenyl)-3-(trifluoromethyl)-1H-pyrazol-1-yl]-benzenesulfonamide] | unstable with respect to another form, Form I | ≥ 71.5 |
| NS(=O)(=O)c1ccc(-n2nc(C(F)(F)F)cc2-c2ccc(F)cc2)cc1 [Form I, 4-[5-(4-fluorophenyl)-3-(trifluoromethyl)-1H-pyrazol-1-yl]-benzenesulfonamide] |  | ≤ 71.0 |
